≈ marks a conversion by molar mass, not a printed value.
Key:
Type in all cases: functional
[1] = system: Mycobacterium tuberculosis; assay: Antimycobacterial activity against streptomycin, isoniazid, rifampicin, ethambutol and pirazynamide-susceptible Mycobacterium tuberculosis H37Rv ATCC 27294 by MTT assay
[2] = system: Mycobacteroides chelonae; assay: Antimycobacterial activity against Mycobacterium chelonae MNT1407 clinical isolate by MTT assay
[3] = system: Mycobacterium szulgai; assay: Antimycobacterial activity against Mycobacterium szulgai MNT1100 clinical isolate by MTT assay
[4] = system: Mycobacterium scrofulaceum; assay: Antimycobacterial activity against Mycobacterium scrofulaceum MNT1193 clinical isolate by MTT assay
[5] = system: Mycolicibacterium fortuitum; assay: Antimycobacterial activity against Mycobacterium fortuitum MNT1073 clinical isolate by MTT assay
[6] = system: Mycobacterium intracellulare; assay: Antimycobacterial activity against Mycobacterium intracellulare MNT1408 clinical isolate by MTT assay

SMILES | MIC [1] [mg/L] | MIC [2] [mg/L] | MIC [3] [mg/L] | MIC [4] [mg/L] | MIC [5] [mg/L] | MIC [6] [mg/L]
Cc1nn(-c2ccccc2)c2nc3c(c(-c4ccccc4)c12)C(=O)C(=O)c1ccccc1-3 | ≤ 2 | > 32 | > 32 | > 32 | > 32 | > 32
Cc1ccc(-c2c3c(nc4c2c(C)nn4-c2ccccc2)-c2ccccc2C(=O)C3=O)cc1 | 4 (≈ 9.31 µM) | > 32 | > 32 | > 32 | > 32 | > 32
COc1cc(-c2c3c(nc4c2c(C)nn4-c2ccccc2)-c2ccccc2C(=O)C3=O)cc(OC)c1OC | > 32 | > 32 | > 32 | > 32 | > 32 | > 32
Cc1nn(-c2ccccc2)c2nc3c(c(-c4ccc(Cl)cc4)c12)C(=O)C(=O)c1ccccc1-3 | > 32 | > 32 | > 32 | > 32 | > 32 | > 32
Cc1nn(-c2ccccc2)c2nc3c(c(-c4ccc(F)cc4)c12)C(=O)C(=O)c1ccccc1-3 | 4 (≈ 9.23 µM) | > 32 | > 32 | > 32 | > 32 | > 32
O=C1C(=O)c2ccccc2C2=C1C(c1ccccc1)c1c(-c3ccccc3)n[nH]c1N2 (stereo not given) | > 32 | > 32 | > 32 | > 32 | > 32 | > 32
Cc1ccc(C2C3=C(Nc4[nH]nc(-c5ccccc5)c42)c2ccccc2C(=O)C3=O)cc1 (stereo not given) | > 32 | > 32 | > 32 | > 32 | > 32 | > 32
COc1ccc(C2C3=C(Nc4[nH]nc(-c5ccccc5)c42)c2ccccc2C(=O)C3=O)cc1 (stereo not given) | > 32 | > 32 | > 32 | > 32 | > 32 | > 32
Cc1ccc(-c2n[nH]c3c2C(c2ccccc2)C2=C(N3)c3ccccc3C(=O)C2=O)cc1 (stereo not given) | 16 (≈ 38.3 µM) | > 32 | > 32 | > 32 | > 32 | > 32
O=C1C(=O)c2ccccc2C2=C1C(c1ccccc1)c1c(-c3ccc(Cl)cc3)n[nH]c1N2 (stereo not given) | > 32 | > 32 | > 32 | > 32 | > 32 | > 32
O=C1C(=O)c2ccccc2C2=C1C(c1ccccc1)c1c(-c3ccc([N+](=O)[O-])cc3)n[nH]c1N2 (stereo not given) | 32 (≈ 71.4 µM) | > 32 | > 32 | > 32 | > 32 | > 32
Cc1ccc(-c2n[nH]c3nc4c(c(-c5ccc([N+](=O)[O-])cc5)c23)C(=O)C(=O)c2ccccc2-4)cc1 | > 32 | > 32 | > 32 | > 32 | > 32 | > 32
COc1ccc(-c2c3c(nc4[nH]nc(-c5ccc(Cl)cc5)c24)-c2ccccc2C(=O)C3=O)cc1 | > 32 | > 32 | > 32 | > 32 | > 32 | > 32
NNC(=O)c1ccncc1 [ISONIAZID] | 0.25 (≈ 1.82 µM) | > 0.5 | > 0.5 | > 0.5 | > 0.5 | > 0.5
CO[C@H]1/C=C/O[C@@]2(C)Oc3c(C)c(O)c4c(O)c(c(/C=N/N5CCN(C)CC5)c(O)c4c3C2=O)NC(=O)/C(C)=C\C=C\[C@H](C)[C@H](O)[C@@H](C)[C@@H](O)[C@@H](C)[C@H](OC(C)=O)[C@@H]1C [RIFAMPIN] | 0.125 (≈ 0.152 µM) | 0.125 (≈ 0.152 µM) | > 0.5 | > 0.5 | > 0.5 | > 0.5

Source: ChEMBL document CHEMBL3112512, “Microwave induced three-component synthesis and antimycobacterial activity of benzopyrazolo[3,4-b]quinolindiones” (2014)
